For 12 compounds, IC50 results are on record in patent US12378224B2 (Dong-A Socio Holdings Co., Ltd., priority 2016, dated 2025).

Structures are written as SMILES.

In the test the target is human MER (528-end) (Homo sapiens (Human), UniProt Q12866). Briefly: HTRF Kinase Activity Biochemical Assay (KinEASE-TK). To be noted: 10 uM ATP. In a few lines:
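Activity read-out is the HTRF ratio (665 nm over 620 nm emission, ×10,000; excitation 340 nm) after 1 h detection with 0.375 nM Eu3+-cryptate anti-TK antibody plus 0.062 uM SA-XL665. Preceding kinase step: human MER (528-end), biotinylated TK substrate, 1 h, room temperature.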
(In general: In TR-FRET formats the signal depends on donor and acceptor labels being close together.)

Chain of human MER (528-end) (Q12866 528-999 limits assumed): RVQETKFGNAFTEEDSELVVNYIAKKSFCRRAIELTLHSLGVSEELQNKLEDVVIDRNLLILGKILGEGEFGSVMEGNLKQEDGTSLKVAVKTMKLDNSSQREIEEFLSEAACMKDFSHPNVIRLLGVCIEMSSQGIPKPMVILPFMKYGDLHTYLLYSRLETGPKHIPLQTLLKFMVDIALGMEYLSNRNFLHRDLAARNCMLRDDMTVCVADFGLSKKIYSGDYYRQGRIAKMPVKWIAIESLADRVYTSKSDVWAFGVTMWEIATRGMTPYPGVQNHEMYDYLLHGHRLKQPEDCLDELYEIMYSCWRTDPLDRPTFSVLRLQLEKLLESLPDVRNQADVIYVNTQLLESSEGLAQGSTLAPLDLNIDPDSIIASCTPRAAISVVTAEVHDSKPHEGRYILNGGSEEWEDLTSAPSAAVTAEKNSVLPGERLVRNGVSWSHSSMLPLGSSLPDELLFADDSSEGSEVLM

On to `Cc1csc(-c2ccc(C(=O)N3CC[C@@H](NC(=O)c4cc(-c5cnn(C)c5)cnc4N)C3)cc2)n1` [Example 544, (R)-2-amino-5-(1-methyl-1H-pyrazol-4-yl)-N-(1-(4-(4-methylthiazol-2-yl)benzoyl)pyrrolidin-3-yl)nicotinamide], for which the concentration for half-maximal inhibition (IC50) was in the range of 0.1 to 1 µM.
Take `Cn1cc(-c2cnc(N)c(C(=O)N[C@@H]3CCN(C(=O)c4nc5ccccc5[nH]4)C3)c2)cn1` [Example 545, (R)—N-(1-(1H-benzo[d]imidazole-2-carbonyl)pyrrolidin-3-yl)-2-amino-5-(1-methyl-1H-pyrazol-4-yl)nicotinamide]: the IC50 is more than 1 µM.
On to `Cn1cc(-c2cnc(N)c(C(=O)N[C@@H]3CCN(C(=O)c4ccc(-c5ccc(CN6CCC(N)CC6)cc5)cc4)C3)c2)cn1` [Example 547, (R)-2-amino-N-(1-(4′-((4-aminopiperidin-1-yl)methyl)-[1,1′-biphenyl]-4-carbonyl)pyrrolidin-3-yl)-5-(1-methyl-1H-pyrazol-4-yl)nicotinamide], for which the IC50 was in the range of 0.1 to 1 µM.
The same measure for `CN1CCC(COc2ccc(-c3ccc(C(=O)N4CC[C@@H](NC(=O)c5cc(-c6cnn(C)c6)cnc5N)C4)cc3)cc2)CC1` [Example 552, (R)-2-amino-5-(1-methyl-1H-pyrazol-4-yl)-N-(1-(4′-((1-methylpiperidin-4-yl)methoxy)-[1,1′-biphenyl]-4-carbonyl)pyrrolidin-3-yl)nicotinamide]: 0.1 to 1 µM.
In turn, `Cn1cc(-c2cnc(N)c(C(=O)N[C@@H]3CCN(C(=O)c4ccc(C#CCCO)cc4)C3)c2)cn1` [Example 553, (R)-2-amino-N-(1-(4-(4-hydroxybut-1-yn-1-yl)benzoyl)pyrrolidin-3-yl)-5-(1-methyl-1H-pyrazol-4-yl)nicotinamide] showed an IC50 of more than 1 µM.
The same measure for `Cn1cc(-c2cnc(N)c(C(=O)N[C@@H]3CCN(C(=O)c4ccc(C#CCCCO)cc4)C3)c2)cn1` [Example 554, (R)-2-amino-N-(1-(4-(5-hydroxypent-1-yn-1-yl)benzoyl)pyrrolidin-3-yl)-5-(1-methyl-1H -pyrazol-4-yl)nicotinamide]: 0.1 to 1 µM.
Compound `CN1CCN(c2ccc(-c3cnc(N)c(C(=O)N[C@@H]4CCN(C(=O)c5ccc(-c6ccccc6)cc5)C4)c3)cc2)CC1` [Example 556, (R)—N-(1-([1,1′-biphenyl]-4-carbonyl)pyrrolidin-3-yl)-2-amino-5-(4-(4-methylpiperazin-1-yl)phenyl)nicotinamide] yielded an IC50 of 0.01 to 0.1 µM.
`Nc1ncc(-c2cccnc2)cc1C(=O)N[C@@H]1CCN(C(=O)c2ccc(-c3ccccc3)cc2)C1` [Example 558, (R)—N-(1-([1,1′-biphenyl]-4-carbonyl)pyrrolidin-3-yl)-6-amino-[3,3′-bipyridine]-5-carboxamide] returned a half-inhibitory concentration (IC50) of 0.01 to 0.1 µM.
In the case of `Nc1ncc(-c2ccc(F)nc2)cc1C(=O)N[C@@H]1CCN(C(=O)c2ccc(-c3ccccc3)cc2)C1` [Example 560, (R)—N-(1-([1,1′-biphenyl]-4-carbonyl)pyrrolidin-3-yl)-6-amino-6′-fluoro-[3,3′-bipyridine]-5-carboxamide], the IC50 was in the range of 0.1 to 1 µM.
The result for `Nc1ncc(-c2cnn(C3CCNCC3)c2)cc1C(=O)N[C@@H]1CCN(C(=O)c2ccc(-c3ccccc3)cc2)C1` [Example 562, (R)—N-(1-([1,1′-biphenyl]-4-carbonyl)pyrrolidin-3-yl)-2-amino-5-(1-(piperidin-4-yl)-1H-pyrazol-4-yl)nicotinamide] reads 0.01 to 0.1 µM.
In the case of `CN1CCC(n2cc(-c3cnc(N)c(C(=O)N[C@@H]4CCN(C(=O)c5ccc(-c6ccccc6)cc5)C4)c3)cn2)CC1` [Example 563, (R)—N-(1-([1,1′-biphenyl]-4-carbonyl)pyrrolidin-3-yl)-2-amino-5-(1-(1-methylpiperidin-4-yl)-1H-pyrazol-4-yl)nicotinamide], the IC50 is 0.01 to 0.1 µM.
The result for `Nc1ncc(-c2ccc(CO)cc2)cc1C(=O)N[C@@H]1CCN(C(=O)c2ccc(-c3ccccc3)cc2)C1` [Example 568, (R)—N-(1-([1,1′-biphenyl]-4-carbonyl)pyrrolidin-3-yl)-2-amino-5-(4-(hydroxymethyl)phenyl)nicotinamide] reads 0.1 to 1 µM.

The term IC50 denotes the concentration needed to halve the response being measured.
